Experimental data from patent US20150004100A1, “HETEROCYCLIC COMPOUNDS AS IMAGING PROBES OF TAU PATHOLOGY” (GE HEALTHCARE LIMITED, priority 2011, published 2015).

Tests used:
[1] = In vivo cold bio-distribution in rat (brain uptake, LC-MS); details: for tissue uptake at 2 min / tissue uptake at 10 min / tissue uptake at 30 min / tissue uptake at 60 min: male, Wistar, brain, iv, 50 μg/rat; for tissue uptake at 10 min: 10 min p.i.; for tissue uptake at 30 min: 30 min p.i.; for tissue uptake at 60 min: 60 min p.i.; for Clearance ratio 2:30 min: rat brain, 2 min vs 30 min p.i.
Description: All animal studies were in compliance with local rules and regulations. Test compounds were administered by intravenous (i.v) injection through the tail vein of naïve male Wistar rats (50 μg test compound/rat). The animals were sacrificed by dislocation of the neck at 2, 10, 30, 60 min post-injection (p.i). The brain and plasma were collected from each animal. The concentration of test compound was measured in the plasma and brain homogenates using LS-MS, and calculated as % compound/g (% ID/g).

tau+ NFTs [2] = test: Tissue binding assay (fluorescence), NFTs in human AD tissue sections; design: key to NFTs (staining): −: No staining; +: weak staining; ++: moderate staining; +++: intense staining; details: 100 μM, human AD tissue
Description: (§1) Human brain tissue samples from the entorhinal cortex of patients with Alzheimer's disease (AD) and healthy controls were obtained from Tissue Solutions (Tissue Solutions Ltd, Glasgow, UK). Tissue samples were collected after informed written consent, and specimens were dissected at the tissue bank and snap-frozen for cryopreservation at a time interval of between 3 and 18 h after death. The frozen tissue was embedded in TissueTek® (VWR) and sectioned using a Microm HM560 cryostat (Thermo Scientific). Serial 12 μm sections were mounted onto SuperFrost®+ glass slides (VWR) and stored a −70° C.
(§2) The binding of compounds to tau+NFTs and Aβ+ plaques in human AD tissue were evaluated based on fluorescence.
(§3) Briefly, tissue sections were defrosted and fixed in ice-cold 70% ethanol. All tissue sections were rinsed with PBS after fixation and between all subsequent incubation steps. To quench autofluorescence, tissue sections were incubated first with 0.25% KMnO4 (Sigma-Aldrich) in PBS for 12 min, and then with 0.1% […]/0.1% oxalic acid (both reagents from Sigma-Aldrich) in PBS for 1 min. The tissue sections were blocked with 2% BSA in PBS for 10 min, and then incubated with the test compounds at 100 μM concentration for 1 h at RT. […] Finally the tissue sections were rinsed in PBS, and mounted in SlowFade® mounting media (Invitrogen). Images of labelled tissue sections were captured using a Nikon digital camera connected to a Leica microscope and using the NIS Elements D software (Nikon). Images were further processed with the Photoshop® software (Adobe).

Aβ+ plaques [3] = test: Tissue binding assay (fluorescence), plaques in human AD tissue sections; design: key to Plaques (staining): −: No staining; +: weak staining; ++: moderate staining; +++: intense staining; details: 100 μM, human AD tissue
Description: as §1, §2, §3

Aβ+ plaques [4] = test: as above; design: key to Plaques (staining): −: No staining; +: weak staining; ++: moderate staining; +++: intense staining; details: human AD tissue
[5] = PAMPA (parallel artificial membrane permeability assay); assay type: in vitro ADME; details: 10 μM, 5 h at RT; criterion >−6
Description: The PAMPA assay is used to determine how well a compound crosses a cell membrane by measuring its passage through a phosphotidyl choline barrier. A permeability coefficient >−6 indicates high permeability across lipid membranes and is indicative of a compounds ability to cross the blood brain barrier.
A 10 μM solution was incubated on a PDVF membrane coated with a 2% phoshotidyl choline solution for 5 h at RT. Membrane penetration was measured using LC-MS.

[6] = Protein binding assay, human plasma (rapid equilibrium dialysis); assay type: in vitro ADME; details: % bound, criterion <99%
Description: (§4) The protein binding assays provide an estimate of free (unbound) fraction of the compound in the blood or brain in vivo. […] The desirable criterion for this assay is <99% of test compound bound.
(§5) Test compounds were first dissolved in DMSO to a concentration of 50 μM. This was followed by incubation in samples of human plasma and rat brain homogenates (final test concentration 1 μM). Binding of compounds to proteins was determined in the samples by rapid equilibrium dialysis after 5 and 30 min of incubation.

tau+ NFTs [7] = test: Tissue binding assay (fluorescence), NFTs in human AD tissue sections; design: key to NFTs (staining): −: No staining; +: weak staining; ++: moderate staining; +++: intense staining; details: Table 2, human AD tissue
rat liver microsomes = test: Liver microsome stability assay, rat; assay type: in vitro ADME; details: 1 μM, 37° C., parent compound remaining, criterion >50%
Description: (§6) The liver microsome stability assay provides an estimate of compound stability and rate of metabolism in vivo. The desirable criterion for this assay is >50% parent compound after 30 min.
(§7) A 1 μM compound solution was incubated with rat or human liver microsomes (20 mg/ml) at 37° C. and the amount of parent compound remaining following the incubation was determined after 5 and 30 min of incubation using LC-MS.

human liver microsomes = test: Liver microsome stability assay, human; assay type: in vitro ADME; details: 1 μM, 37° C., parent compound remaining, criterion >50%
Description: as §6, §7

[8] = Protein binding assay, rat brain homogenates (rapid equilibrium dialysis); assay type: in vitro ADME; details: rat brain homogenate, % bound, criterion <99%
Description: as §4, §5

SMILES: COc1ccc(-n2nc(NCCF)c3csc(N)c3c2=O)cc1 [Compound 99]
- tissue uptake at 2 min ([1]; rat, 2 min p.i.): > 0.2 %ID/g
- tissue uptake at 10 min ([1]; rat): 0.092 %ID/g
- tissue uptake at 30 min ([1]; rat): 0.013 %ID/g
- tissue uptake at 60 min ([1]; rat): 0.001 %ID/g
- Clearance ratio 2:30 min [1]: 23.8
- Brain uptake and clearance (in words) ([1]; rat, from clearance ratio): rapid brain uptake followed by rapid clearance
- Brain uptake % ID/g p.i ([1]; rat, i.v., 2 min p.i.): 0.31 % ID/g

SMILES: CC(C)NC(=O)c1nn(-c2ccc(O)cc2)c(=O)c2c(NC(=O)OC(C)(C)C)scc12 [Compound 63]
- NFTs (staining) (tau+ NFTs [2]; Table 2): −

SMILES: CC(C)NC(=O)c1nn(-c2ccc(OCC(O)CF)cc2)c(=O)c2c(N)scc12 (stereo not drawn) [Compound 59]
- Plaques (staining) (Aβ+ plaques [3]; Table 4): −
- NFTs (staining) (tau+ NFTs [2]; Table 4): −

SMILES: COc1ccc(-n2nc(C(=O)N3CC[C@@H](F)C3)c3csc(N)c3c2=O)cc1 [Compound 107]
- Plaques (staining) (Aβ+ plaques [3]; Table 3): +
- Plaques (staining) (Aβ+ plaques [4]; Table 3, 1 μM): −
- Plaques (staining) (Aβ+ plaques [4]; Table 3, 10 μM): −
- NFTs (staining) (tau+ NFTs [2]; Table 3): −

SMILES: CC(C)(C)OC(=O)c1nn(-c2ccc(OCCF)cc2)c(=O)c2c(N)scc12 [Compound 104]
- Plaques (staining) (Aβ+ plaques [3]; Table 4): −
- NFTs (staining) (tau+ NFTs [2]; Table 4): −

SMILES: COc1ccc(-n2nc(C(=O)NCCF)c3csc(N)c3c2=O)cc1 [Compound 106]
- Plaques (staining) (Aβ+ plaques [3]; Table 3): −
- tissue uptake at 2 min ([1]; rat, 2 min p.i.): 0.014 %ID/g
- tissue uptake at 10 min ([1]; rat): 0.001 %ID/g
- tissue uptake at 30 min ([1]; rat): 0.004 %ID/g
- tissue uptake at 60 min ([1]; rat): 0.001 %ID/g
- Clearance ratio 2:30 min [1]: 3.5
- Brain uptake (in words) ([1]; rat, cold bio-distribution): low brain uptake

SMILES: COc1ccc(-n2nc(C(=O)N3CCN(c4cccc(F)n4)CC3)c3csc(NC(=O)OC(C)(C)C)c3c2=O)cc1 [Compound 91]
- Plaques (staining) (Aβ+ plaques [3]; Table 2): −
- NFTs (staining) (tau+ NFTs [2]; Table 2): −

SMILES: CC(C)NC(=O)c1nn(-c2ccc(F)cc2)c(=O)c2c(N)scc12 [Compound 14]
- PAMPA Log Pe [5]: −4.89
- fraction unbound at 1 μM [6]: 0.0522
- Plaques (staining) (Aβ+ plaques [3]; Table 2): +
- Plaques (staining) (Aβ+ plaques [4]; Table 2, 1 μM): −
- Plaques (staining) (Aβ+ plaques [4]; Table 2, 10 μM): −
- NFTs (staining) (tau+ NFTs [7]; 1 μM): −
- NFTs (staining) (tau+ NFTs [7]; 10 μM): −
- NFTs (staining) (tau+ NFTs [2]; Table 2): +
- Liver stability Rat (% PCP) 5 min (rat liver microsomes): 92.8 % PCP
- Liver stability Rat (% PCP) 30 min (rat liver microsomes): 64.0 % PCP
- Liver stability Human (% PCP) 5 min (human liver microsomes): 92.1 % PCP
- Liver stability Human (% PCP) 30 min (human liver microsomes): 61.3 % PCP
- fraction unbound at 1 μM [8]: 0.383

SMILES: COc1ccc(-n2nc(C(=O)N3CC[C@H](F)C3)c3csc(N)c3c2=O)cc1 [Compound 108]
- Plaques (staining) (Aβ+ plaques [3]; Table 3): −
- NFTs (staining) (tau+ NFTs [2]; Table 3): −

SMILES: COc1ccc(-n2nc(C(=O)N3CCN(c4cccc(F)n4)CC3)c3csc(N)c3c2=O)cc1 [Compound 90]
- PAMPA Log Pe [5]: −5.51
- fraction unbound at 1 μM [6]: 0.0084
- Plaques (staining) (Aβ+ plaques [3]; Table 2): −
- Liver stability Rat (% PCP) 5 min (rat liver microsomes): 72.67 % PCP
- Liver stability Rat (% PCP) 30 min (rat liver microsomes): 53.0 % PCP
- Liver stability Human (% PCP) 5 min (human liver microsomes): 44.62 % PCP
- Liver stability Human (% PCP) 30 min (human liver microsomes): 2.57 % PCP
- fraction unbound at 1 μM [8]: 0.112

SMILES: CNc1scc2c(C(=O)NC(C)C)nn(-c3ccc(OC)cc3)c(=O)c12 [Compound 87]
- Plaques (staining) (Aβ+ plaques [3]; Table 3): −
- NFTs (staining) (tau+ NFTs [2]; Table 3): −

SMILES: CC(C)NC(=O)c1nn(-c2ccc(OCCCF)cc2)c(=O)c2c(N)scc12 [Compound 61]
- Plaques (staining) (Aβ+ plaques [3]; Table 4): −
- NFTs (staining) (tau+ NFTs [2]; Table 4): −

SMILES: COc1ccc(-n2nc(C(=O)N3CCC(CF)CC3)c3csc(N)c3c2=O)cc1.Cl [Compound 81]
- PAMPA Log Pe [5]: −5.12
- fraction unbound at 1 μM [6]: 0.0498
- Plaques (staining) (Aβ+ plaques [3]; Table 3): −
- Liver stability Rat (% PCP) 5 min (rat liver microsomes): 60.12 % PCP
- Liver stability Rat (% PCP) 30 min (rat liver microsomes): 32.54 % PCP
- Liver stability Human (% PCP) 5 min (human liver microsomes): 91.63 % PCP
- Liver stability Human (% PCP) 30 min (human liver microsomes): 73.10 % PCP
- fraction unbound at 1 μM [8]: 0.589

SMILES: CC(C)NC(=O)c1nn(-c2ccc(OCCF)cc2)c(=O)c2c(NC(=O)OC(C)(C)C)scc12 [Compound 64]
- Plaques (staining) (Aβ+ plaques [3]; Table 3): −
- NFTs (staining) (tau+ NFTs [2]; Table 3): −

SMILES: CC(C)NC(=O)c1nn(-c2ccc(O)cc2)c(=O)c2c(N)scc12 [Compound 58]
- PAMPA Log Pe [5]: −7.52
- fraction unbound at 1 μM [6]: 0.068
- Liver stability Rat (% PCP) 5 min (rat liver microsomes): 90.03 % PCP
- Liver stability Rat (% PCP) 30 min (rat liver microsomes): 79.3 % PCP
- Liver stability Human (% PCP) 5 min (human liver microsomes): 100.9 % PCP
- Liver stability Human (% PCP) 30 min (human liver microsomes): 83.4 % PCP
- fraction unbound at 1 μM [8]: 0.506

SMILES: COc1ccc(-n2nc(C(=O)N3CCC(CCF)CC3)c3csc(N)c3c2=O)cc1 [Compound 56]
- PAMPA Log Pe [5]: −5.16
- fraction unbound at 1 μM [6]: 0.0372
- Plaques (staining) (Aβ+ plaques [3]; Table 3): −
- NFTs (staining) (tau+ NFTs [2]; Table 3): −
- Liver stability Rat (% PCP) 5 min (rat liver microsomes): 94.88 % PCP
- Liver stability Rat (% PCP) 30 min (rat liver microsomes): 92.06 % PCP
- Liver stability Human (% PCP) 5 min (human liver microsomes): 80.98 % PCP
- Liver stability Human (% PCP) 30 min (human liver microsomes): 52.10 % PCP
- fraction unbound at 1 μM [8]: 0.448

SMILES: COc1ccc(-n2nc(C(=O)N3CCN(c4ccc(F)nc4)CC3)c3csc(N)c3c2=O)cc1 [Compound 67]
- Plaques (staining) (Aβ+ plaques [3]; Table 3): −
- NFTs (staining) (tau+ NFTs [2]; Table 3): −

SMILES: COc1ccc(-n2nc(C(=O)NC(C)C)c3csc(N(C)C)c3c2=O)cc1 [Compound 82]
- Plaques (staining) (Aβ+ plaques [3]; Table 2): ++
- Plaques (staining) (Aβ+ plaques [4]; Table 2, 1 μM): −
- Plaques (staining) (Aβ+ plaques [4]; Table 2, 10 μM): −
- NFTs (staining) (tau+ NFTs [2]; Table 2): +
